Experimental data taken from PubChem BioAssay AID1963875 (Molecular Pharmacology Branch, DTP, NCI, 2024).

System: KRAS-mutant PDC complex spheroid viability
Assay: Anticancer human tumor 186277-243-T-J2-PDC patient-derived colon adenocarcinoma cell line growth inhibition [KRAS2]
Settings: for IC50: curve of first compound; for viability, T/C: stronger effect = lower value; active = viability on the fitted dose curve at most 10% of control; inactive = the rest
Procedure, shortened: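 KRAS-mutant tumor cells were grown as spheroids with HUVEC endothelial cells and human MSCs as stroma. Targeted agents were tested alone and with KRAS pathway inhibitors. Doses started at or near clinical Cmax, or 10 microM, descending half-log.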

[1] = second compound 0.1 µM, first compound 0.000316 µM
[2] = second compound 0.1 µM, first compound 0.001 µM
[3] = second compound 0.1 µM, first compound 0.00316 µM
[4] = second compound 0.1 µM, first compound 0.01 µM
[5] = second compound 0.1 µM, first compound 0.0316 µM
[6] = second compound 0.316 µM, first compound 0.000316 µM
[7] = second compound 0.316 µM, first compound 0.001 µM
[8] = second compound 0.316 µM, first compound 0.00316 µM
[9] = second compound 0.316 µM, first compound 0.01 µM
[10] = second compound 0.316 µM, first compound 0.0316 µM
[11] = second compound 1 µM, first compound 0.000316 µM
[12] = second compound 1 µM, first compound 0.001 µM
[13] = second compound 1 µM, first compound 0.00316 µM
[14] = second compound 1 µM, first compound 0.01 µM
[15] = second compound 1 µM, first compound 0.0316 µM
[16] = second compound 3.16 µM, first compound 0.000316 µM
[17] = second compound 3.16 µM, first compound 0.001 µM
[18] = second compound 3.16 µM, first compound 0.00316 µM
[19] = second compound 3.16 µM, first compound 0.01 µM
[20] = second compound 3.16 µM, first compound 0.0316 µM
[21] = second compound 10 µM, first compound 0.000316 µM
[22] = second compound 10 µM, first compound 0.001 µM
[23] = second compound 10 µM, first compound 0.00316 µM
[24] = second compound 10 µM, first compound 0.01 µM
[25] = second compound 10 µM, first compound 0.0316 µM
[26] = second compound 0.1 µM, first compound 0.1 µM
[27] = second compound 0.316 µM, first compound 0.1 µM
[28] = second compound 1 µM, first compound 0.1 µM
[29] = second compound 3.16 µM, first compound 0.1 µM
[30] = second compound 10 µM, first compound 0.1 µM
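Throughout, for viability, T/C: viability read after seven days of compound exposure; 100% = DMSO vehicle-treated spheroids so lower means less viable.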

CC(=O)Nc1cccc(-n2c(=O)n(C3CC3)c(=O)c3c(Nc4ccc(I)cc4F)n(C)c(=O)c(C)c32)c1 + CC1OCC2(CCN(c3cnc(Sc4ccnc(N)c4Cl)c(N)n3)CC2)C1N
0.368 nM: IC50 (second compound 0.1 µM)
active: viability, T/C [3] 5% | viability, T/C [4] 1.6% | viability, T/C [5] 1.06% | viability, T/C [7] 5.13% | viability, T/C [8] 3.78% | viability, T/C [9] 3.34% | viability, T/C [10] 0.76% | viability, T/C [12] 4.8% | viability, T/C [13] 1.82% | viability, T/C [14] 0.88% | viability, T/C [15] 0.76% | viability, T/C [16] 5.11% | viability, T/C [17] 2.57% | viability, T/C [18] 1.18% | viability, T/C [19] 0.59% | viability, T/C [20] 0.6% | viability, T/C (second compound 10 µM, first compound 0.0001 µM) 10% | viability, T/C [21] 3.24% | viability, T/C [22] 1.99% | viability, T/C [23] 0.72% | viability, T/C [24] 0.68% | viability, T/C [25] 0.55%
inactive: viability, T/C (second compound 0.1 µM, first compound 0.0001 µM) 116% | viability, T/C [1] 56.1% | viability, T/C [2] 9.68% | viability, T/C (second compound 0.316 µM, first compound 0.0001 µM) 86.3% | viability, T/C [6] 25.9% | viability, T/C (second compound 1 µM, first compound 0.0001 µM) 60.8% | viability, T/C [11] 10.9% | viability, T/C (second compound 3.16 µM, first compound 0.0001 µM) 24.4%
0.199 nM: IC50 (second compound 0.316 µM)
0.128 nM: IC50 (second compound 1 µM)
< 0.1 nM: IC50 (second compound 3.16 µM) | IC50 (second compound 10 µM)

CC(=O)OC12COC1CC(O)C1(C)C(=O)C(O)C3=C(C)C(OC(=O)C(O)C(NC(=O)OC(C)(C)C)c4ccccc4)CC(O)(C(OC(=O)c4ccccc4)C21)C3(C)C (stereo not given) + CC1OCC2(CCN(c3cnc(Sc4ccnc(N)c4Cl)c(N)n3)CC2)C1N
active: viability, T/C [4] 4.2% | viability, T/C [5] 2.69% | viability, T/C [26] 2.31% | viability, T/C (second compound 0.1 µM, first compound 0.316 µM) 2.12% | viability, T/C (second compound 0.1 µM, first compound 1 µM) 2.12% | viability, T/C (second compound 0.1 µM, first compound 3.16 µM) 2.53% | viability, T/C [9] 2.83% | viability, T/C [10] 3.64% | viability, T/C [27] 1.94% | viability, T/C (second compound 0.316 µM, first compound 0.316 µM) 1.7% | viability, T/C (second compound 0.316 µM, first compound 1 µM) 1.93% | viability, T/C (second compound 0.316 µM, first compound 3.16 µM) 2.14% | viability, T/C [14] 4.63% | viability, T/C [15] 3.42% | viability, T/C [28] 3.58% | viability, T/C (second compound 1 µM, first compound 0.316 µM) 2.84% | viability, T/C (second compound 1 µM, first compound 1 µM) 3.01% | viability, T/C (second compound 1 µM, first compound 3.16 µM) 3.67% | viability, T/C [19] 2.53% | viability, T/C [20] 1.65% | viability, T/C [29] 2.04% | viability, T/C (second compound 3.16 µM, first compound 0.316 µM) 1.63% | viability, T/C (second compound 3.16 µM, first compound 1 µM) 1.81% | viability, T/C (second compound 3.16 µM, first compound 3.16 µM) 2.09% | viability, T/C [24] 1.96% | viability, T/C [25] 1.99% | viability, T/C [30] 1.61% | viability, T/C (second compound 10 µM, first compound 0.316 µM) 1.82% | viability, T/C (second compound 10 µM, first compound 1 µM) 1.73% | viability, T/C (second compound 10 µM, first compound 3.16 µM) 1.74%
< 10 nM: IC50 (second compound 0.1 µM) | IC50 (second compound 0.316 µM) | IC50 (second compound 1 µM) | IC50 (second compound 3.16 µM) | IC50 (second compound 10 µM)

CN(C)C/C=C/C(=O)Nc1cc2c(Nc3ccc(F)c(Cl)c3)ncnc2cc1O[C@H]1CCOC1 + CC1OCC2(CCN(c3cnc(Sc4ccnc(N)c4Cl)c(N)n3)CC2)C1N
28.9 nM: IC50 (second compound 3.16 µM)
inactive: viability, T/C [1] 92.7% | viability, T/C [2] 104% | viability, T/C [3] 104% | viability, T/C [4] 126% | viability, T/C [5] 100% | viability, T/C [26] 108% | viability, T/C [6] 103% | viability, T/C [7] 101% | viability, T/C [8] 112% | viability, T/C [9] 104% | viability, T/C [10] 84.5% | viability, T/C [27] 81.4% | viability, T/C [11] 92.5% | viability, T/C [12] 90.5% | viability, T/C [13] 93.5% | viability, T/C [14] 99.8% | viability, T/C [15] 99.8% | viability, T/C [28] 99.5% | viability, T/C [16] 97.8% | viability, T/C [17] 81.3% | viability, T/C [18] 87.7% | viability, T/C [19] 62.6% | viability, T/C [20] 49.4% | viability, T/C [29] 34.6% | viability, T/C [21] 92.9% | viability, T/C [22] 92% | viability, T/C [23] 79.6% | viability, T/C [24] 103% | viability, T/C [25] 44.6% | viability, T/C [30] 38.4%
> 100 nM: IC50 (second compound 0.1 µM) | IC50 (second compound 0.316 µM) | IC50 (second compound 1 µM)
27.8 nM: IC50 (second compound 10 µM)
